From PubChem BioAssay (NCI)
Where “and” joins values, the source holds several entries; their conditions need not be identical. Equal entries are not always repeated.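 48-hour exposure; five concentrations; linearly interpolated endpoints. GI50 = concentration required for 50% inhibition of growth. The concentration for full growth arrest is given as TGI.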

Tests used:
Assay in all cases: inhibition of tumour cell growth, NCI panel, 48 h
COLO 205 colon = system: COLO 205 colon
HT29 colon = system: HT29 colon
OVCAR-8 ovarian = system: OVCAR-8 ovarian
HCC-2998 colon = system: HCC-2998 colon
786-0 renal = system: 786-0 renal
SN12C renal = system: SN12C renal
SR leukemia = system: SR leukemia
SF-295 CNS = system: SF-295 CNS
ACHN renal = system: ACHN renal
HOP-62 NSCLC = system: HOP-62 NSCLC
SK-MEL-2 melanoma = system: SK-MEL-2 melanoma

Compound	TGI (COLO 205 colon)	TGI (HT29 colon) [µM]	TGI (OVCAR-8 ovarian)	TGI (HCC-2998 colon)	TGI (786-0 renal)	TGI (SN12C renal)	TGI (SR leukemia)	TGI (SF-295 CNS)	TGI (ACHN renal)	TGI (HOP-62 NSCLC)	TGI (SK-MEL-2 melanoma)	GI50 (COLO 205 colon) [µM]	GI50 (OVCAR-8 ovarian) [µM]	GI50 (HCC-2998 colon) [µM]	GI50 (SN12C renal) [µM]	GI50 (SR leukemia) [µM]	GI50 (SF-295 CNS) [µM]	GI50 (ACHN renal) [µM]	GI50 (HOP-62 NSCLC) [µM]	GI50 (SK-MEL-2 melanoma) [µM]
C/C=C1\Oc2ccc(OC)cc2S1(=O)=O	> 100 µM	> 100	> 100 µM	> 100 µM	> 100 µM	> 100 µM	> 100 µM	> 100 µM	> 100 µM	> 100 µM	> 100 µM									
COc1ccc2nc3cccc([N+](=O)[O-])c3c(NCCC(=O)O)c2c1	> 10 µM	> 10	> 10 µM	> 10 µM	> 10 µM	> 10 µM	> 10 µM	> 10 µM	> 10 µM	> 10 µM	> 10 µM									
N#Cc1c(-c2ccccc2)cn(C(=O)c2ccccc2)c1N	> 100 µM	> 100	> 100 µM	0.0659 µM	> 100 µM	> 100 µM	> 100 µM	> 100 µM	> 100 µM	> 100 µM	> 100 µM									
c1ccc2c(c1)CCN1CCc3ccccc3C1C2 (stereo not drawn)	> 100 µM	> 100	> 100 µM	> 100 µM	> 100 µM	> 100 µM	> 100 µM	> 100 µM	> 100 µM	> 100 µM	> 100 µM									
COc1ccc(OC(=O)N2C/C(=C\c3ccccc3)C(=O)/C(=C/c3ccccc3)C2)cc1	15.7 µM	3.73	7.57 µM	8.76 µM	7.96 µM	5.83 µM	2.64 µM	10.1 µM	14.4 µM	21.4 µM	45.6 µM									
CSC12c3cc(C)n(-c4ccc(I)cc4)c3CC(C)(C)CN1C(=O)C2Oc1ccccc1 (stereo not drawn)	> 100 µM	> 100	> 100 µM	> 100 µM	> 100 µM	> 100 µM	> 100 µM	> 100 µM	> 100 µM	> 100 µM	> 100 µM									
COC(=O)CN1Cc2cc(C)cc(c2O)CN(CC(=O)OC)Cc2cc(C)cc(c2O)CN(CC(=O)OC)Cc2cc(C)cc(c2O)CN(CC(=O)OC)Cc2cc(C)cc(c2O)C1	50 µM and > 100 µM	50	50 µM and > 100 µM	50 µM and > 100 µM	50 µM and > 100 µM	50 µM and > 100 µM	50 µM and > 100 µM	50 µM and > 100 µM	50 µM and > 100 µM	47.8 µM and > 100 µM	50 µM and 31.3 µM	28.6	18.7	25.2	51.6	18	34.1	34.6	23.3	2.36
COc1ccc(S(=O)(=O)N/N=C(\C)CN2C(=O)c3ccccc3C2=O)cc1OC	> 100 µM	> 100	> 100 µM	> 100 µM	> 100 µM	> 100 µM	> 100 µM	> 100 µM	> 100 µM	> 100 µM	> 100 µM									
CCOC(=O)/C=C(/C(=O)OCC)n1ccc(=O)n(Cc2cn(CCCCOC(C)=O)nn2)c1=O	> 100 µM	> 100	> 100 µM	> 100 µM	> 100 µM	> 100 µM	> 100 µM	> 100 µM	> 100 µM	> 100 µM	> 100 µM									
